Assay results as given in US10093713B2, “GIP-GLP-1 dual agonist compounds and methods” (priority 2013, dated 2018).
Where two headings read alike, the source gives them in different places. *1 amine or outer side, *2 acyl side, *3 side chain or, on linkers, in order; H or OH if unused. Where a SMILES comes first, the peptide text is derived from it. Side-chain parts run from the residue outwards. [ ]: non-standard residue; d: D form. The star is where a group is joined. C18 diacid = O=C(O)CCCCCCCCCCCCCCCCC(=O)*; γGlu = O=C(O)[C@H](CCC(=O)[*:2])N[*:1]; AEEA = NCCOCCOCC(=O)O; Aib = CC(C)(N)C(=O)O

Legend:
[1] = molecular target: T1, human GIP R (Homo sapiens, UniProt P48546); assay: Human GIP receptor (GIP R) activity assay, cAMP induction (AlphaScreen) in HEK293 cells; assay type: cell-based
T1 construct: expressed in transfected cells
T1 sequence (P48546 22-466): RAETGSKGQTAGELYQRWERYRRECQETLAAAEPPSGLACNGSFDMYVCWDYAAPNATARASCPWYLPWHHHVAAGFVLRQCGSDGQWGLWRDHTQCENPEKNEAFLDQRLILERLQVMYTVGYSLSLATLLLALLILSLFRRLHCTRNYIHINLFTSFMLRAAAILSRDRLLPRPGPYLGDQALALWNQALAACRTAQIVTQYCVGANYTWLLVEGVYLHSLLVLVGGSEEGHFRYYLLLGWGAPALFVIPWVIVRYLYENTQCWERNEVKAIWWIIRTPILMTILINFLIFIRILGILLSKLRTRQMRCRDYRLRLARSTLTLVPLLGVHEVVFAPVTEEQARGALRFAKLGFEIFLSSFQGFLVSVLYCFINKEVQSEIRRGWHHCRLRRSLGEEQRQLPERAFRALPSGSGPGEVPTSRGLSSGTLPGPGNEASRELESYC
Outline: (§1)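 Stable HEK293 clones expressing human GIP R or GLP-1 R, seeded 1 day before; cells washed in Tyrode's buffer (10 mM HEPES, pH 7.4), stimulated, then lysed. cAMP measured by AlphaScreen bead competition (1 h, room temperature, dark). EC50 = concentration giving half-maximal cAMP elevation, from curves of absolute cAMP (nM) vs log concentration.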

[2] = molecular target: T2, human GLP-1 R (Homo sapiens, UniProt P43220); assay: Human GLP-1 receptor (GLP-1 R) activity assay, cAMP induction (AlphaScreen) in HEK293 cells; assay type: cell-based
T2 construct: expressed in transfected cells
T2 sequence (P43220 24-463): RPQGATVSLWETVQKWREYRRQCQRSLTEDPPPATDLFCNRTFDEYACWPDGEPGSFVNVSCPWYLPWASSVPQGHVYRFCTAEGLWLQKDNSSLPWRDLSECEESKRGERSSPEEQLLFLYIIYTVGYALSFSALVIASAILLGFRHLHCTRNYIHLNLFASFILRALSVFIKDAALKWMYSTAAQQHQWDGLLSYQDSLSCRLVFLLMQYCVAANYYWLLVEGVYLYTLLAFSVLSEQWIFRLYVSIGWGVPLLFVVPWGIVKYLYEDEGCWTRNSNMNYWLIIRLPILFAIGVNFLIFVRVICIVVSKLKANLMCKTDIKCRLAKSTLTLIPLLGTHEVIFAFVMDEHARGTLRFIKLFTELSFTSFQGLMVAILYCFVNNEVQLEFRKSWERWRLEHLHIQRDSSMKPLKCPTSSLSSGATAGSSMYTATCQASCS
Outline: as §1

[3] = Table 2a, secondary assay study, read-out: hGIP-R cAMP EC50 average value
[4] = Table 2a, secondary assay study, read-out: hGLP1-R cAMP EC50 average value
[5] = Table 2, HEK293 cells expressing human GIP R, read-out: hGIP-R cAMP EC50 average value
[6] = Table 3, most comprehensive data, read-out: hGIP-R cAMP EC50 average value
[7] = Table 2, HEK293 cells expressing human GLP-1 R, read-out: hGLP1-R cAMP EC50 average value

EC50 [1, 5] [nM] | EC50 [1, 6] [nM] | EC50 [2, 7] [nM] | SMILES | also measured
0.0068 | 0.007 | 0.011 | CC[C@H](C)[C@H](NC(=O)[C@H](CO)NC(=O)[C@H](Cc1ccc(O)cc1)NC(=O)[C@H](CC(=O)O)NC(=O)[C@H](CO)NC(=O)[C@@H](NC(=O)[C@H](Cc1ccccc1)NC(=O)[C@@H](NC(=O)CNC(=O)[C@H](CCC(=O)O)NC(=O)C(C)(C)NC(=O)[C@@H](N)Cc1ccc(O)cc1)[C@@H](C)O)[C@@H](C)O)C(=O)N[C@@H](C)C(=O)N[C@@H](CC(C)C)C(=O)N[C@@H](CC(=O)O)C(=O)N[C@@H](CCCCN)C(=O)N[C@@H](CCCCNC(=O)COCCOCCNC(=O)COCCOCCNC(=O)CC[C@H](NC(=O)CCCCCCCCCCCCCCCCC(=O)O)C(=O)O)C(=O)N[C@@H](C)C(=O)N[C@@H](CCC(N)=O)C(=O)N[C@@H](CCCNC(=N)N)C(=O)N[C@@H](C)C(=O)N[C@@H](Cc1ccccc1)C(=O)N[C@H](C(=O)N[C@@H](CCC(=O)O)C(=O)N[C@@H](Cc1c[nH]c2ccccc12)C(=O)N[C@@H](CC(C)C)C(=O)N[C@H](C(=O)N[C@@H](C)C(=O)NC(C)(C)C(=O)N[C@@H](CCCCN)C(N)=O)C(C)C)C(C)C [Compound 21] (H-Y[Aib]EGTFTSDYSIALDKK([AEEA-AEEA-γGlu-C18 diacid])AQRAFVEWLVA[Aib]K-NH2) | 
0.2 | 0.2 | 0.044 | CC[C@H](C)[C@H](NC(=O)[C@H](CO)NC(=O)[C@H](Cc1ccc(O)cc1)NC(=O)[C@H](CC(=O)O)NC(=O)[C@H](CO)NC(=O)[C@@H](NC(=O)[C@H](Cc1ccccc1)NC(=O)[C@@H](NC(=O)CNC(=O)[C@H](CCC(=O)O)NC(=O)C(C)(C)NC(=O)[C@@H](N)Cc1ccc(O)cc1)[C@@H](C)O)[C@@H](C)O)C(=O)N[C@@H](C)C(=O)N[C@@H](CC(C)C)C(=O)N[C@@H](CCC(=O)O)C(=O)N[C@@H](CCCCN)C(=O)N[C@@H](CCCCNC(=O)COCCOCCNC(=O)COCCOCCNC(=O)CC[C@H](NC(=O)CCCCCCCCCCCCCCCCC(=O)O)C(=O)O)C(=O)N[C@@H](C)C(=O)N[C@@H](CCC(N)=O)C(=O)N[C@@H](CCCNC(=N)N)C(=O)N[C@@H](C)C(=O)N[C@@H](Cc1ccccc1)C(=O)N[C@H](C(=O)N[C@@H](CCC(=O)O)C(=O)N[C@@H](Cc1c[nH]c2ccccc12)C(=O)N[C@@H](CC(C)C)C(=O)N[C@@H](CCC(=O)O)C(=O)N[C@@H](C)C(=O)N[C@@H](CCC(N)=O)C(=O)N[C@@H](CCCCN)C(N)=O)C(C)C [Compound 23] (H-Y[Aib]EGTFTSDYSIALEKK([AEEA-AEEA-γGlu-C18 diacid])AQRAFVEWLEAQK-NH2) | 
 | 0.26 | 0.011 | CC[C@H](C)[C@H](NC(=O)[C@H](CO)NC(=O)[C@H](CC(C)C)NC(=O)[C@H](CC(=O)O)NC(=O)[C@H](CO)NC(=O)[C@@H](NC(=O)[C@H](Cc1ccccc1)NC(=O)[C@@H](NC(=O)CNC(=O)[C@H](CCC(=O)O)NC(=O)C(C)(C)NC(=O)[C@@H](N)Cc1ccc(O)cc1)[C@@H](C)O)[C@@H](C)O)C(=O)N[C@@H](C)C(=O)N[C@@H](CC(C)C)C(=O)N[C@@H](CCC(=O)O)C(=O)N[C@@H](CCCCN)C(=O)N[C@@H](CCCCNC(=O)COCCOCCNC(=O)COCCOCCNC(=O)CC[C@H](NC(=O)CCCCCCCCCCCCCCCCC(=O)O)C(=O)O)C(=O)N[C@@H](C)C(=O)N[C@@H](CCC(N)=O)C(=O)N[C@@H](CCCNC(=N)N)C(=O)N[C@@H](C)C(=O)N[C@@H](Cc1ccccc1)C(=O)N[C@H](C(=O)N[C@@H](CCC(=O)O)C(=O)N[C@@H](Cc1c[nH]c2ccccc12)C(=O)N[C@@H](CC(C)C)C(=O)N[C@@H](CCC(=O)O)C(=O)N[C@@H](C)C(=O)N[C@@H](CCC(N)=O)C(=O)N[C@@H](CCCCN)C(N)=O)C(C)C [Compound 24] (H-Y[Aib]EGTFTSDLSIALEKK([AEEA-AEEA-γGlu-C18 diacid])AQRAFVEWLEAQK-NH2) | 

More lines, now with the values behind:

SMILES | EC50 [1, 5] [nM] | EC50 [1, 6] [nM] | EC50 [2, 7] [nM] | also measured
CC[C@H](C)[C@H](NC(=O)[C@H](CO)NC(=O)[C@H](Cc1ccc(O)cc1)NC(=O)[C@H](CC(=O)O)NC(=O)[C@H](CO)NC(=O)[C@@H](NC(=O)[C@H](Cc1ccccc1)NC(=O)[C@@H](NC(=O)CNC(=O)[C@H](CCC(=O)O)NC(=O)C(C)(C)NC(=O)[C@@H](N)Cc1ccc(O)cc1)[C@@H](C)O)[C@@H](C)O)C(=O)N[C@@H](Cc1ccc(O)cc1)C(=O)N[C@@H](CC(C)C)C(=O)N[C@@H](CCC(=O)O)C(=O)N[C@@H](CCCCN)C(=O)N[C@@H](CCCCNC(=O)COCCOCCNC(=O)COCCOCCNC(=O)CC[C@H](NC(=O)CCCCCCCCCCCCCCCCC(=O)O)C(=O)O)C(=O)N[C@@H](C)C(=O)N[C@@H](CCC(N)=O)C(=O)N[C@@H](CCCNC(=N)N)C(=O)N[C@@H](C)C(=O)N[C@@H](Cc1ccccc1)C(=O)N[C@H](C(=O)N[C@@H](CCC(=O)O)C(=O)N[C@@H](Cc1c[nH]c2ccccc12)C(=O)N[C@@H](CC(C)C)C(=O)N[C@@H](CC(C)C)C(=O)N[C@@H](CCCNC(=N)N)C(=O)N[C@@H](C)C(N)=O)C(C)C [Compound 19] (H-Y[Aib]EGTFTSDYSIYLEKK([AEEA-AEEA-γGlu-C18 diacid])AQRAFVEWLLRA-NH2) |  |  |  | EC50 [1, 3]: 0.014 nM; EC50 [2, 4]: 0.022 nM
CC[C@H](C)[C@H](NC(=O)[C@H](CO)NC(=O)[C@H](CC(C)C)NC(=O)[C@H](CC(=O)O)NC(=O)[C@H](CO)NC(=O)[C@@H](NC(=O)[C@H](Cc1ccccc1)NC(=O)[C@@H](NC(=O)CNC(=O)[C@H](CCC(=O)O)NC(=O)C(C)(C)NC(=O)[C@@H](N)Cc1ccc(O)cc1)[C@@H](C)O)[C@@H](C)O)C(=O)N[C@@H](C)C(=O)N[C@@H](CC(C)C)C(=O)N[C@@H](CC(=O)O)C(=O)N[C@@H](CCCCN)C(=O)N[C@@H](CCCCNC(=O)COCCOCCNC(=O)COCCOCCNC(=O)CC[C@H](NC(=O)CCCCCCCCCCCCCCCCC(=O)O)C(=O)O)C(=O)N[C@@H](C)C(=O)N[C@@H](CCC(N)=O)C(=O)N[C@@H](CCCNC(=N)N)C(=O)N[C@@H](C)C(=O)N[C@@H](Cc1ccccc1)C(=O)N[C@H](C(=O)N[C@@H](CC(N)=O)C(=O)N[C@@H](Cc1c[nH]c2ccccc12)C(=O)N[C@@H](CC(C)C)C(=O)N[C@H](C(=O)N[C@@H](C)C(=O)NC(C)(C)C(=O)N[C@@H](CCCCN)C(N)=O)C(C)C)C(C)C [Compound 20] |  |  |  | EC50 ([1]; hGIP-R cAMP EC50 average value, Table 2, HEK293 cells expressing human GIP R): 0.0097 nM; EC50 [2]: 0.011 nM
CC[C@H](C)[C@H](NC(=O)[C@H](CO)NC(=O)[C@H](CC(C)C)NC(=O)[C@H](CC(=O)O)NC(=O)[C@H](CO)NC(=O)[C@@H](NC(=O)[C@H](Cc1ccccc1)NC(=O)[C@@H](NC(=O)CNC(=O)[C@H](CCC(=O)O)NC(=O)C(C)(C)NC(=O)[C@@H](N)Cc1ccc(O)cc1)[C@@H](C)O)[C@@H](C)O)C(=O)N[C@@H](C)C(=O)N[C@@H](CC(C)C)C(=O)N[C@@H](CC(=O)O)C(=O)N[C@@H](CCCCN)C(=O)N[C@@H](CCCCNC(=O)COCCOCCNC(=O)COCCOCCNC(=O)CC[C@H](NC(=O)CCCCCCCCCCCCCCCCC(=O)O)C(=O)O)C(=O)N[C@@H](C)C(=O)N[C@@H](CCC(N)=O)C(=O)N[C@@H](CCCNC(=N)N)C(=O)N[C@@H](C)C(=O)N[C@@H](Cc1ccccc1)C(=O)N[C@H](C(=O)N[C@@H](CC(N)=O)C(=O)N[C@@H](Cc1c[nH]c2ccccc12)C(=O)N[C@@H](CC(C)C)C(=O)N[C@H](C(=O)N[C@@H](C)C(=O)NC(C)(C)C(=O)N[C@@H](CCCCN)C(N)=O)C(C)C)C(C)C [Compound 21] |  |  |  | EC50 [1, 3]: 0.01 nM; EC50 [2, 4]: 0.01 nM
CC[C@H](C)[C@H](NC(=O)[C@H](CO)NC(=O)[C@H](Cc1ccc(O)cc1)NC(=O)[C@H](CC(=O)O)NC(=O)[C@H](CO)NC(=O)[C@@H](NC(=O)[C@H](Cc1ccccc1)NC(=O)[C@@H](NC(=O)CNC(=O)[C@H](CCC(=O)O)NC(=O)C(C)(C)NC(=O)[C@@H](N)Cc1ccc(O)cc1)[C@@H](C)O)[C@@H](C)O)C(=O)N[C@@H](C)C(=O)N[C@@H](CC(C)C)C(=O)N[C@@H](CCC(=O)O)C(=O)N[C@@H](CCCCN)C(=O)N[C@@H](CCCCNC(=O)COCCOCCNC(=O)COCCOCCNC(=O)CC[C@H](NC(=O)CCCCCCCCCCCCCCCCC(=O)O)C(=O)O)C(=O)N[C@@H](C)C(=O)N[C@@H](CCC(N)=O)C(=O)N[C@@H](CCCNC(=N)N)C(=O)N[C@@H](C)C(=O)N[C@@H](Cc1ccccc1)C(=O)N[C@H](C(=O)N[C@@H](CCC(=O)O)C(=O)N[C@@H](Cc1c[nH]c2ccccc12)C(=O)N[C@@H](CC(C)C)C(=O)N[C@@H](CCC(=O)O)C(=O)N[C@@H](C)C(=O)N[C@@H](CCC(N)=O)C(=O)NCC(=O)N1CCC[C@H]1C(=O)N[C@@H](CO)C(=O)N[C@@H](CO)C(=O)NCC(=O)N[C@@H](C)C(=O)N1CCC[C@H]1C(=O)N1CCC[C@H]1C(=O)N1CCC[C@H]1C(=O)N[C@@H](CO)C(N)=O)C(C)C [Compound 22] (H-Y[Aib]EGTFTSDYSIALEKK([AEEA-AEEA-γGlu-C18 diacid])AQRAFVEWLEAQGPSSGAPPPS-NH2) | 0.06 | 0.06 | 0.061 | EC50 ([2]; Table 3, most comprehensive data, read-out: hGLP-1-R cAMP EC50 average value): 0.061 nM
